Results as given in patent publication US9371320B2, “Heterocyclic compound” (TAKEDA PHARMACEUTICAL COMPANY LIMITED, priority 2012, dated 2016).
Where two headings read alike, the source gives them in different places.

Assays:
JAK1 = biological target: T1, JAK1 (Homo sapiens, UniProt P23458); assay: JAK1 enzyme inhibition test (LANCE method); assay type: biochemical; conditions: for inhibition at 1 µM: test compound 1 μM, read-out: Inhibitory rate (%) JAK1 1 μM; for inhibition at 10 µM: read-out: Inhibitory rate (%) JAK1 10 μM
T1 construct: purchased Invitrogen
T1 sequence (P23458 whole entry): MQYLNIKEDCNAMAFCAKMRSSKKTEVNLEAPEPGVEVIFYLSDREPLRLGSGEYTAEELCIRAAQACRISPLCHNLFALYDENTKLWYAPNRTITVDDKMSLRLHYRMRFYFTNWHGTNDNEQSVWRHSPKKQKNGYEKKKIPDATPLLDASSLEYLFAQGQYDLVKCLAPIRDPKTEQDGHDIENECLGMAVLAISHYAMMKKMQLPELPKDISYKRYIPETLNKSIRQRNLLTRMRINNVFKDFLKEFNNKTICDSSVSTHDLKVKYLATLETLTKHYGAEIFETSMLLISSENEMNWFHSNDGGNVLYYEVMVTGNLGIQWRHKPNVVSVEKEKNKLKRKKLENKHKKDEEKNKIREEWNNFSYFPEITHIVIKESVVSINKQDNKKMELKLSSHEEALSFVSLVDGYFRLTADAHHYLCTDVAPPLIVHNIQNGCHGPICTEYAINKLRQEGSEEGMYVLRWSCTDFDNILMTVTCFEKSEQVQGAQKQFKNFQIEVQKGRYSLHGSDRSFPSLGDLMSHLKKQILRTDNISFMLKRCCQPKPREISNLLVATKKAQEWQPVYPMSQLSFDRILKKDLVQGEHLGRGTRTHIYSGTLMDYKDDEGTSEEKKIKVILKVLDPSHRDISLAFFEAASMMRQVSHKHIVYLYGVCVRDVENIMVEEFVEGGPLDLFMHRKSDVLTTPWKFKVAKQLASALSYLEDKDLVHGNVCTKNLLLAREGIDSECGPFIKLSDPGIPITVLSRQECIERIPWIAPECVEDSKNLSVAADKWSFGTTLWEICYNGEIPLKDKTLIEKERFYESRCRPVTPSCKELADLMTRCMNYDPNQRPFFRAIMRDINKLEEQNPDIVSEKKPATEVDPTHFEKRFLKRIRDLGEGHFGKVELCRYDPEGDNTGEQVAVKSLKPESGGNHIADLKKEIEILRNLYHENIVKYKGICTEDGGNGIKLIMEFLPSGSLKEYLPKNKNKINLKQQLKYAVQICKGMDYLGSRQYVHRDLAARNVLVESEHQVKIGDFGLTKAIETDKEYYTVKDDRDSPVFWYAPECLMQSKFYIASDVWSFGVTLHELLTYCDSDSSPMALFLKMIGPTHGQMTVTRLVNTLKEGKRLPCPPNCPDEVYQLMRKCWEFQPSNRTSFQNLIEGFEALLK
Description: JAK1 Enzyme Inhibition Test
(§1) JAK1 enzyme inhibitory activity of test compounds was measured by LANCE method (PerkinElmer). First, a test compound diluted with assay buffer (50 mM HEPES (pH=7.5), 10 mM MgCl2, 1 mM EGTA, 2 mM DTT, 0.01% Tween20, 0.01% BSA) was added to 384-well plate at 2 μL each. Then, a JAK1 (Invitrogen) solution and a fluorescence-labeled peptide substrate (ULight-JAK1, PerkinElmer) solution diluted with assay buffer at 187.5 ng/mL and 300 nM, respectively were added at 2 μL each. Then, enzyme reaction was started by adding 2 μL each of ATP solution prepared with assay buffer at 150 μM. After the reaction at room temperature for 1 hr, Detection Buffer (PerkinElmer) prepared to be 20 mM EDTA, 4 nM europium-labeled anti-phosphotyrosine antibody (PerkinElmer) was added at 6 μL each. After standing at room temperature for 1 hr, fluorescence intensity (excitation wavelength 340 nm, fluorescence wavelength 665 nm, delay time 100 microsecond) was measured by a plate reader, Envision (PerkinElmer). The inhibitory activity of each compound was calculated as relative value where fluorescence intensity of a well without enzyme is considered as 100% inhibition.

Tyk2 = biological target: T2, Tyk2 (Homo sapiens, UniProt P29597); assay: Tyk2 enzyme inhibition test (LANCE method); assay type: biochemical; conditions: for inhibition at 1 µM: test compound 1 μM, read-out: Inhibitory rate (%) Tyk2 1 μM; for inhibition at 10 µM: test compound 10 μM, read-out: Inhibitory rate (%) Tyk2 10 μM
T2 construct: purchased Invitrogen
T2 sequence (P29597 whole entry): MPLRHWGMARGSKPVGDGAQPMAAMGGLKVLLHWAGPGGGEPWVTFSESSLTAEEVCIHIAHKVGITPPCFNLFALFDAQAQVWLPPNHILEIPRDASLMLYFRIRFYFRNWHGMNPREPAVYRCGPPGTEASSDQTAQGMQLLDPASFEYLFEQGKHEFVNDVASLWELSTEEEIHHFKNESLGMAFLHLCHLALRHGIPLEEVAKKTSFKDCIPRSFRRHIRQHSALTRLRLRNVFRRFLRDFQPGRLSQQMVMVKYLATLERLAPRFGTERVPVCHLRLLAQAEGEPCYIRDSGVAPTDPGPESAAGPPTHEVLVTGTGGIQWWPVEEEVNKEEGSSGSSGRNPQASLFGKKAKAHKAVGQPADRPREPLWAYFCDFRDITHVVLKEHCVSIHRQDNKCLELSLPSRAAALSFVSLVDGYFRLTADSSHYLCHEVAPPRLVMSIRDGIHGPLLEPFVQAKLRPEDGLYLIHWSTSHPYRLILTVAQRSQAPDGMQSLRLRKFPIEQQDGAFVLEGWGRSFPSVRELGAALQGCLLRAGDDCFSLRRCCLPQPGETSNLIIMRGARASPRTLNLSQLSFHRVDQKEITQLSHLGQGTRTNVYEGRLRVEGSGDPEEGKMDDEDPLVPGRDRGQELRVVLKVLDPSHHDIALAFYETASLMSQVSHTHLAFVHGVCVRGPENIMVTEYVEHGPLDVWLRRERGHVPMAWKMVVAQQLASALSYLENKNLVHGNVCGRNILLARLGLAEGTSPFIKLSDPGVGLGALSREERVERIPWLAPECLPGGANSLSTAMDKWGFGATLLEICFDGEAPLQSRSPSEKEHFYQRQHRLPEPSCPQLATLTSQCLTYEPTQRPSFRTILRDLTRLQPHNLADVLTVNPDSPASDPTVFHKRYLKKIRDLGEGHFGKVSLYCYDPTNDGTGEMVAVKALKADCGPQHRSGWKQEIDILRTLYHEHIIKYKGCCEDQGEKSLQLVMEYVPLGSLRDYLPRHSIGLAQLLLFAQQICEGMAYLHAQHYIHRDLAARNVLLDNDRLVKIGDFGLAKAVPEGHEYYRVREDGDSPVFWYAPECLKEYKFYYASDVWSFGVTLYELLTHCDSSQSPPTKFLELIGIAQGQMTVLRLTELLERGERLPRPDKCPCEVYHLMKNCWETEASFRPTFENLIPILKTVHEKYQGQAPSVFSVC
Description: Tyk2 Enzyme Inhibition Test
as §1, with “Tyk2 enzyme” for “JAK1 enzyme”, “a Tyk2” for “a JAK1”, “at 375” for “at 187.5”, “at 30” for “at 150”

[1] = test compound 10 μM (Ex. 182-220), beside Tyk2 1 μM

Row | Compound | inhibition at 1 µM (JAK1) [%] | inhibition at 1 µM (Tyk2) [%] | inhibition at 10 µM (JAK1; test compound 10 μM) [%] | inhibition at 10 µM (Tyk2) [%] | inhibition at 10 µM (JAK1; [1]) [%]
1 | CNC(=O)Cc1cccc(-c2nn(-c3c(F)cccc3F)c3cc[nH]c(=O)c23)c1 [Example 253, 2-(3-(1-(2,6-difluorophenyl)-4-oxo-4,5-dihydro-1H-pyrazolo[4,3-c]pyridin-3-yl)phenyl)-N-methylacetamide] | 87 | 98 |  |  | 
2 | C[C@H]1COCCN1c1ccc(-c2nn(-c3c(F)cccc3F)c3cc[nH]c(=O)c23)cc1 [Example 245, 1-(2,6-difluorophenyl)-3-(4-((3S)-3-methylmorpholin-4-yl)phenyl)-1,5-dihydro-4H-pyrazolo[4,3-c]pyridin-4-one] | 96 | 100 |  |  | 
3 | N#Cc1cc(F)c(-n2nc(-c3ccc(N4CCOCC4)cc3)c3c(=O)[nH]ccc32)c(F)c1 [Example 244, 3,5-difluoro-4-(3-(4-(morpholin-4-yl)phenyl)-4-oxo-4,5-dihydro-1H-pyrazolo[4,3-c]pyridin-1-yl)benzonitrile] | 89 | 97 |  |  | 
4 | NS(=O)(=O)c1ccc(Cn2nc(-c3ccccc3)c3cc[nH]c(=O)c32)cc1 [Example 19, 4-((7-oxo-3-phenyl-6,7-dihydro-1H-pyrazolo[3,4-c]pyridin-1-yl)methyl)benzenesulfonamide] |  |  | 44 | 27 | 
5 | NS(=O)(=O)c1ccc(-n2nc(C3CCCC3)c3cc[nH]c(=O)c32)cc1 [Example 75, 4-(3-cyclopentyl-7-oxo-6,7-dihydro-1H-pyrazolo[3,4-c]pyridin-1-yl)benzenesulfonamide] | 93 | 84 |  |  | 
6 | CNC(=O)c1ccc(F)c(-c2nn(-c3c(F)cccc3F)c3cc[nH]c(=O)c23)c1 [Example 272, 3-(1-(2,6-difluorophenyl)-4-oxo-4,5-dihydro-1H-pyrazolo[4,3-c]pyridin-3-yl)-4-fluoro-N-methylbenzamide] |  |  | 12 | 25 | 
7 | CC(C)(C#N)c1ccc(-c2nn(-c3c(F)cccc3F)c3c(Cl)c[nH]c(=O)c23)cc1 [Example 187, 2-(4-(7-chloro-1-(2,6-difluorophenyl)-4-oxo-4,5-dihydro-1H-pyrazolo[4,3-c]pyridin-3-yl)phenyl)-2-methylpropanenitrile] |  | 98 |  |  | 83
8 | C[C@H]1CCC[C@H]1n1cc(-c2csc(C(N)=O)c2)c2c(=O)[nH]ccc21 (relative stereo) [Example 85, 4-(1-(cis-2-methylcyclopentyl)-4-oxo-4,5-dihydro-1H-pyrrolo[3,2-c]pyridin-3-yl)thiophene-2-carboxamide] | 90 | 100 |  |  | 
9 | CCC(CC)n1nc(-c2csc(C(N)=O)c2)c2c(=O)[nH]ccc21 [Example 149, 4-(4-oxo-1-(pentan-3-yl)-4,5-dihydro-1H-pyrazolo[4,3-c]pyridin-3-yl)thiophene-2-carboxamide] | 100 | 99 |  |  | 
10 | CNC(=O)c1ccc(-c2nn(-c3c(F)cccc3C#N)c3cc[nH]c(=O)c23)cc1 [Example 307, 4-(1-(2-cyano-6-fluorophenyl)-4-oxo-4,5-dihydro-1H-pyrazolo[4,3-c]pyridin-3-yl)-N-methylbenzamide] | 92 | 99 |  |  | 
11 | NC(=O)c1cc(-c2cn(C3CCCC3)c3c(C(=O)O)c[nH]c(=O)c23)cs1 [Example 61, 3-(5-carbamoyl-3-thienyl)-1-cyclopentyl-4-oxo-4,5-dihydro-1H-pyrrolo[3,2-c]pyridine-7-carboxylic acid] | 8 | 41 |  |  | 
12 | O=c1[nH]ccc2c1c(-c1ccc3nonc3c1)nn2C1CCCC1 [Example 59, 3-(2,1,3-benzoxadiazol-5-yl)-1-cyclopentyl-1,5-dihydro-4H-pyrazolo[4,3-c]pyridin-4-one] | 66 | 56 |  |  | 
13 | COc1ccc(CNc2nn(C(C)(C)C)c3cc[nH]c(=O)c23)cc1 [Example 249, 1-tert-butyl-3-((4-methoxybenzyl)amino)-1,5-dihydro-4H-pyrazolo[4,3-c]pyridin-4-one] |  |  | 30 | 25 | 
14 | N#Cc1c[nH]c(=O)c2c(-c3ccc(C(N)=O)cc3)cn(C3CCCC3)c12 [Example 81, 4-(7-cyano-1-cyclopentyl-4-oxo-4,5-dihydro-1H-pyrrolo[3,2-c]pyridin-3-yl)benzamide] | 62 | 97 |  |  | 
15 | NC(=O)Cn1cc(-c2nn(-c3c(F)cccc3F)c3c(Br)c[nH]c(=O)c23)cn1 [Example 175, 2-(4-(7-bromo-1-(2,6-difluorophenyl)-4-oxo-4,5-dihydro-1H-pyrazolo[4,3-c]pyridin-3-yl)-1H-pyrazol-1-yl)acetamide] | 86 | 100 |  |  | 
16 | NS(=O)(=O)c1ccc(-c2nn(CC3COC3)c3cc[nH]c(=O)c23)cc1 [Example 105, 4-(1-(oxetan-3-ylmethyl)-4-oxo-4,5-dihydro-1H-pyrazolo[4,3-c]pyridin-3-yl)benzenesulfonamide] | 88 | 66 |  |  | 
17 | O=C(NCCO)c1cc(-c2nn(C3CCCC3)c3cc[nH]c(=O)c23)cs1 [Example 157, 4-(1-cyclopentyl-4-oxo-4,5-dihydro-1H-pyrazolo[4,3-c]pyridin-3-yl)-N-(2-hydroxyethyl)thiophene-2-carboxamide] | 100 | 99 |  |  | 
18 | N#Cc1c[nH]c(=O)c2c1c(C1CCCC1)nn2-c1csc(C(N)=O)c1 [Example 66, 4-(4-cyano-3-cyclopentyl-7-oxo-6,7-dihydro-1H-pyrazolo[3,4-c]pyridin-1-yl)thiophene-2-carboxamide] | 66 | 92 |  |  | 
19 | O=C1CCCN1Cc1cc(-c2nn(-c3c(F)cccc3F)c3c(Cl)c[nH]c(=O)c23)cs1 [Example 220, 7-chloro-1-(2,6-difluorophenyl)-3-(5-((2-oxopyrrolidin-1-yl)methyl)-3-thienyl)-1,5-dihydro-4H-pyrazolo[4,3-c]pyridin-4-one] |  | 100 |  |  | 98
20 | COC(=O)c1c[nH]c(=O)c2c(-c3ccc(C(N)=O)cc3)cn(C3CCCC3)c12 [Example 29, methyl 3-(4-carbamoylphenyl)-1-cyclopentyl-4-oxo-4,5-dihydro-1H-pyrrolo[3,2-c]pyridine-7-carboxylate] | 14 | 83 |  |  | 
21 | CC(=O)Nc1cccc(-c2cn(C3CCCC3)c3c(C#N)c[nH]c(=O)c23)c1 [Example 130, N-(3-(7-cyano-1-cyclopentyl-4-oxo-4,5-dihydro-1H-pyrrolo[3,2-c]pyridin-3-yl)phenyl)acetamide] | 76 | 96 |  |  | 
22 | CCNC(=O)n1cc(-c2nn(-c3c(F)cccc3F)c3c(Cl)c[nH]c(=O)c23)cn1 [Example 222, 4-(7-chloro-1-(2,6-difluorophenyl)-4-oxo-4,5-dihydro-1H-pyrazolo[4,3-c]pyridin-3-yl)-N-ethyl-1H-pyrazole-1-carboxamide] | 69 | 98 |  |  | 
23 | NC(=O)c1cc(-c2nn(-c3c(F)cccc3F)c3cc[nH]c(=O)c23)cs1 [Example 38, 4-(1-(2,6-difluorophenyl)-4-oxo-4,5-dihydro-1H-pyrazolo[4,3-c]pyridin-3-yl)thiophene-2-carboxamide] | 100 | 99 |  |  | 
